The results in this text go back to patent US6503948B2, “Method for prevention or treatment of acute allograft rejection and a pharmaceutical composition therefor” (Southern Research Institute, priority 1998, dated 2003).

The experiment deals with acute allograft rejection (heart graft, Fischer donor to Long-Evans recipient). Description: Intra abdominal heterotopic cardiografting in rats with donor pretreatment; graft survival. The experiment is classed as in vivo, rat. Here is the method: 1-(2-chloroethyl)-1-nitroso-3-(3-methylcyclohexyl)urea was administered 5 mg per donor rat at a dosage of 20 mg/kg 24 hours prior to removal of heart tissue for transplantation. Administration of the compound above results in survival of 25 days, 27 days, 30 days, 32 days, and greater than 60 days.
According to this experiment, the donor rats were Fischer strain and the recipients were Long-Evans strains. These strains are mismatched at the major histocompatibility antigenic site (Ag locus). In the experiment, intra abdominal heterotopic cardiografting was performed using a modification of techniques described by Ono and Lindsey, Improved Technique of Heart Transplantation In Rats, Journal of Thoracic and Cardiovascular Surgery, 57: 225 (1969) and Lee et al., Heterotopic Heart and Lung Transplantation in the Rat, American Journal of Pathology, 59: 279 (1970), the entire contents of the disclosures of both of which are hereby incorporated by reference.
According to this experiment, a total dose of 20 milligrams per kilogram of the above compound was administered to donor rats 24 hours prior to transplantation. According to this dosage regimen, survival was prolonged from 10 to 25-60 days. Survival for 60 days indicated permanent survival, in other words, while typically surviving 10 days, the rats lived for 25-60 days, with the rats living to 60 days having a permanent survival.

“And” between values parts separate entries of the source, which are not always exact repeats. Equal entries are not always repeated.

With `CC1CCCC(NC(=O)N(CCCl)N=O)C1` (stereo not shown) [1-(2-chloroethyl)-1-nitroso-3-(3-methylcyclohexyl)urea], the survival runs as follows: (5 mg per donor rat, 20 mg/kg, given to donor 24 hours prior to removal of heart tissue, Fischer donors, Long-Evans recipients, typical survival 10 days) 25 days and 27 days and 30 days and 32 days and greater than 60 days and 25-60 days; (recipients also treated with a single small dose of Cyclosporine A) “increase in survival”. Also, the “median survival (considering dying rats only) versus the compound alone” value (donors treated with 20 mg/kg compound combined with 100 mg/kg methotrexate) is recorded as “increase in median survival”. In addition, the “microscopic evaluation of hearts” value (rats surviving for 60 days, sacrificed after two years, donor dose 20 mg/kg) was “normal hearts”.
